Consider 19 compounds from PubChem BioAssay (NCI).

Values joined by “and” are separate entries in the source; they are usually repeats but may differ in a detail not shown here. Equal entries are not always repeated.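 Each compound was tested at five concentrations against cells in 96-well plates for 48 hours. GI50 marks 50% less growth. TGI: total growth inhibition.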

Common to all, as to test: DTP human tumour cell line panel, 48 h
In assay [1] the test system is 786-0 renal.
Assay [2] concerns EKVX NSCLC.
In assay [3] the test system is LOX IMVI melanoma.
Assay [4] has as its system NCI-H226 lung.
Assay [5] relates to NCI-H23 lung.
For assay [6], the system named is SF-295 CNS.
In assay [7] the test system is A498 renal.
Assay [8] concerns HCT-15 colon.
Assay [9] relates to IGROV1 ovarian.

In the case of `O=C(c1ccc(O)cc1O)C1C(c2ccc(O)cc2)OC(c2ccc(O)cc2)C1C(=O)c1ccc(O)cc1O` (stereo not drawn), the TGI in assay [1] worked out at 23.2 µM; in [2], 60 µM; in assay [3], 44.2 µM; in assay [4], 40.4 µM; in assay [5], 74.2 µM; in [6], 67.9 µM.

Turning to `Nc1ccc2n[se]nc2c1`, the TGI in assay [1], in assay [7], in assay [2], in assay [8], in [9] and in [3] was over 100 µM throughout. In addition, the TGI in [5] and in assay [6] was over 100 µM each time.

With `Cc1ccc(NC(=O)CCc2nc(=S)[nH][nH]2)cc1`, the TGI in assay [1], in assay [7], in [2], in assay [8], in assay [9] and in assay [4] was over 100 µM in each case. Besides, the total growth inhibition concentration (TGI) in assay [5] and in assay [6] was over 100 µM in each case.

For `COC(=O)CCSC(=O)Nc1ccc(N=Nc2ccccc2)cc1`, the concentration for total growth inhibition (TGI) in assay [1] is over 100 µM; in assay [7] it was 62.1 µM; in assay [2], over 100 µM; in assay [8] it was over 100 µM; in assay [9], over 100 µM; in assay [3] it was over 100 µM. Moreover, the concentration for total growth inhibition (TGI) in assay [4] was over 100 µM; in assay [5] it was 92 µM; in [6], over 100 µM.

For the compound `COc1ccc2c(c1)OC(N)=C(C#N)C2c1cc(OC)c(OC)c(OC)c1` (stereo not drawn), the GI50 in [1] was 0.0538 µM; in assay [7], 0.0222 µM; in assay [2], 0.251 µM; in assay [8], 0.034 µM; in [9] it was 0.0463 µM; in [3], 0.0346 µM. Further, the GI50 in assay [4] is 0.0573 µM; in assay [5], 0.0362 µM; in assay [6] it was 0.03 µM. Besides, the total growth inhibition concentration (TGI) in [1] is over 100 µM; in assay [7], 0.148 µM; in [2], over 100 µM; in assay [8], over 100 µM; in assay [9], over 51 µM; in assay [3], over 100 µM. Moreover, the results for the TGI in assay [4], in [5] and in assay [6] were over 100 µM, over 47.7 µM and over 44.4 µM, respectively.

For `COC1=C(N)C(=O)c2nc(-c3nc(C(=O)O)c(C)c(-c4ccc(OC)c(OC)c4O)c3N)ccc2C1=O`, the total growth inhibition concentration (TGI) is 0.00261 µM and 0.0217 µM and < 0.01 µM in assay [1]; 0.0349 µM and 0.0896 µM in [2]; 0.0196 µM and 0.125 µM and 0.0589 µM in assay [9]; 0.00323 µM and 0.0236 µM and 0.0136 µM in assay [6]. In addition, the GI50 in assay [7] was 0.00128 µM; in assay [2], 0.00938 µM and 0.0215 µM; in assay [8], 0.00144 µM and 0.00832 µM and < 0.01 µM; in assay [9], 0.00237 µM and 0.0223 µM and 0.0183 µM; in assay [3] it was 0.024 µM and 0.00755 µM; in assay [4], 0.00126 µM and 0.00319 µM.

Regarding `Cc1nc(N)nc(N)c1CCCCc1ccc(N)cc1`, the TGI in [1] came to 18.9 µM; in assay [2], 27.3 µM; in assay [8], 18.4 µM; in assay [9], 21.2 µM; in assay [3] it was 14.8 µM; in assay [4] it was 56.1 µM. In addition, the TGI is 15.8 µM in assay [5] and 14.2 µM in [6].

With `NC1NC=NC2C1N=CN2C1OC(CO)C2[O][Sn][O]C21` (stereo not drawn), the GI50 in assay [1] was over 100 µM; in [7], over 100 µM; in assay [2] it was over 100 µM; in assay [8], 0.384 µM; in assay [9], over 100 µM; in assay [3], over 100 µM. Moreover, the GI50 in [4], in assay [5] and in assay [6] was over 100 µM throughout. Besides, the TGI in [1], in assay [7], in assay [2], in assay [8], in [9] and in assay [3] was over 100 µM throughout. Further, the concentration for total growth inhibition (TGI) in assay [4], in [5] and in [6] was over 100 µM throughout.

Consider `COc1ccccc1NC(=O)C1=C(C)NC(C)=C(C(=O)Nc2ccccc2OC)C1c1ccccc1[N+](=O)[O-]`, for which the total growth inhibition concentration (TGI) in assay [1] is 35.5 µM; in assay [2] it was over 100 µM; in assay [8] it was 27.5 µM; in assay [9], 45 µM; in assay [3], 33.2 µM; in [4], 35.2 µM. Further, the TGI is 43.6 µM in [5] and over 100 µM in assay [6].

In the case of `COc1cc([N+](=O)[O-])c(OC)cc1-c1nc2sc(C)c(C)n2c1/C(N)=N/C(=N)N`, the GI50 in [1], in [2], in [8], in assay [9], in assay [5] and in assay [6] was over 100 µM throughout. Besides, the TGI in [1], in assay [2], in assay [8], in assay [9], in assay [5] and in [6] was over 100 µM in each case.

Regarding `COc1cc[c]([Sn]([c]2ccc(OC)cc2)([c]2ccc(OC)cc2)[c]2ccc(OC)cc2)cc1`, the GI50 in assay [1] was 18.1 µM; in [7] it was 14.2 µM; in [2] it was 35 µM; in assay [8], over 100 µM; in [9] it was 25.9 µM; in [3], 13.6 µM. Moreover, the figures for the GI50 in [5] and in assay [6] were 23.3 µM and 39.4 µM, respectively. The TGI is 43.5 µM in assay [1]; 76.3 µM in [7]; over 100 µM in [2]; over 100 µM in [8]; over 100 µM in [9]; 29.4 µM in assay [3]. Moreover, the TGI in assay [5] and in assay [6] was over 100 µM throughout.

Take `CC1(C)CCC(Sc2ccccc2)O1` (stereo not drawn): the concentration for total growth inhibition (TGI) in [1], in assay [7], in assay [2], in assay [8], in assay [9] and in assay [3] was over 100 µM in each case. Further, the TGI in [5] and in assay [6] was over 100 µM each time.

As to `O=[N+]([O-])c1ccc(C2=Nc3ccccc3S(=O)C(c3ccccc3)C2)cc1` (stereo not drawn), the TGI in [1] is 35.1 µM; in assay [2] it was 45.1 µM; in [8], 76.2 µM; in assay [9], 36.9 µM; in assay [3], 29.3 µM; in [4] it was 49.4 µM. Moreover, the total growth inhibition concentration (TGI) is 36.3 µM in [5] and over 100 µM in [6].

As to `CC(C)(C)c1cc(CCC(=O)Nc2ccc(Cl)cc2)[nH]c(=S)n1`, the concentration for total growth inhibition (TGI) in assay [1], in assay [2], in [8], in [9], in assay [3] and in [4] was over 100 µM in each case. For the same compound, the TGI in [5] and in assay [6] was over 100 µM throughout.

For `CC(=O)C1CCN(c2ccccc2)C1` (stereo not drawn), the concentration for total growth inhibition (TGI) in [1], in assay [7], in assay [2], in assay [9], in [4] and in [5] was over 100 µM each time. In assay [6], this compound gave a total growth inhibition concentration (TGI) of over 100 µM.

Regarding `COC1C2C[C@@H](O)CCC2C(C(=O)OCCl)C[C@H]1O` (stereo partly drawn), the total growth inhibition concentration (TGI) in [1], in assay [7], in assay [8], in assay [9] and in [4] was over 100 µM each time.

With `O=C(O/N=C1\CCCC\C1=C/c1ccccc1)c1ccc([N+](=O)[O-])cc1`, the concentration for total growth inhibition (TGI) in [1], in assay [2], in assay [8], in assay [3], in assay [4] and in [5] was over 100 µM in each case. Besides, the TGI in [6] was over 100 µM.

On to `Cn1c(CBr)nc2c1C(=O)c1nc(CBr)[nH]c(=O)c1C2=O`, for which the TGI in assay [1], in assay [7], in assay [2], in assay [8], in [9] and in assay [3] was over 100 µM in each case. For the same compound, the TGI in assay [5] and in [6] was over 100 µM in each case.

Regarding `CC(C)(C)c1cc(C(=O)Nc2ccccc2C(=O)NCCN)cc(C(C)(C)C)c1`, the GI50 in [1] is 1.75 µM; in assay [7], 2.38 µM; in assay [2], 1.76 µM; in assay [8] it was 1.89 µM; in [3], 1.53 µM; in assay [4], 1.96 µM. Besides, the GI50 in assay [5] is 1.94 µM; in assay [6] it was 1.88 µM. The concentration for total growth inhibition (TGI) in assay [1] turned out to be 3.51 µM; in [7], 6.44 µM; in assay [2] it was 3.96 µM; in assay [8], 3.45 µM; in assay [3] it was 2.98 µM; in assay [4], 3.74 µM. Besides, the concentration for total growth inhibition (TGI) in assay [5] came out at 3.89 µM; in assay [6] it was 3.59 µM.

By TGI is commonly meant the concentration giving total growth inhibition. Read a high TGI as less potent growth arrest. Usually GI50 stands for the concentration giving 50% growth inhibition.
